Data published in paper PMC9391460, “Biophysical and pharmacokinetic characterization of a small-molecule inhibitor of RUNX1/ETO tetramerization with anti-leukemic effects” (Scientific Reports, 2022).
Like-named read-outs stand apart in the source and are kept apart here. Values belong to the molecule of their own block, whether it stands above or below them.

Key:
[1] = Kinetic solubility in PBS; type: physicochemical; conditions: kinetic from dmso stock
Experimental: in a cut-off concentration of 200 µM and a final solvent content of 1% DMSO. The test
solutions (triplicates) were put on a filter plate and were shaken protected from light at 300 rpm
at room temperature for 1.5 hours, followed by centrifugation at 500 x g for 3 minutes. 200 µl
of the filtrate were mixed with 100 µl ACN containing the ISTD as described in Sample

Hepatocyte stability = type: in vitro ADME; conditions: mouse hepatocytes
Experimental: Working solutions of the test and reference items were diluted from the stock solutions in the
incubation medium to reach 10-fold concentrated starting solutions. The final test
concentrations were 5 µM with a solvent content of 0.5% DMSO or 1% ACN in all test item
and reference item incubations, respectively. 7.44 compound was dissolved 20 mM in DMSO
Primary hepatocytes from CD-1 mice (pooled, male) were thawed
according to the instructions of the manufacturer. The incubation samples were composed of
0.2 x 10^6 cells/well in 225 µL incubation medium and 25 µL test item solution (50 µM in
incubation medium), resulting in a final start concentration of 5 µM. Samples were taken from
the suspension cultures after 0, 15, 30, 60, and 120 minutes of incubation and processed for LC-
MS analysis as described in Sample preparation section.
Positive control incubations were performed using 7-ethoxycoumarin as substrate. Metabolic
turnover rates were measured at 0 and 120 minutes of incubation. Aliquotes were taken from
the incubations for sample preparation and analysis. Hepatocyte enzyme activity was assessed
in terms of 7-ethoxycoumarin turnover, i.e., loss of 7-ethoxycoumarin.
Negative controls were performed to observe non-metabolic degradation processes; i.e. test
Negative control incubations were performed
in line with all experiments using incubation medium with test and reference item in the absence
of hepatocytes. Samples were taken from the incubations at 0 and 120 minutes and processed
as described below (in Sample preparation section).

Plasma stability = type: in vitro ADME; conditions: mouse plasma, 0–240 min, 37 °C
Experimental: (§1) For plasma stability assay, working solutions of the test and reference item were diluted f r o m the stock solutions in the appropriate solvent (Table S3) to reach working solutions of 50-fold […]
(§2) and propantheline (reference item for low plasma stability) were tested at a final concentration of 10 µM. The final solvent content in the test item incubations was 0.5% DMSO, while in the propantheline incubations, no organic solvent was added.
(§3) For chemical stability assay, working solutions of the test and reference items were diluted from the stock solutions in the appropriate solvent (Table S3) to reach working solutions of 50- […]
(§4) item and Omeprazole (reference item for low chemical stability) were tested at a final concentration of 10 µM. The final solvent content in the test item incubations was 0.5% DMSO.
(§5) For the hepatic stability assay, working solutions of the test and reference items were diluted from the stock solutions in the appropriate solvent (Table S3) to reach working solutions of a 200-fold higher strength than the intended final concentrations. In a second step, working solutions were further diluted in incubation medium to reach 10-fold concentrated starting

[2] = pKa value determination by 1H NMR; type: physicochemical
Experimental: Sodium 2,2-dimethyl-2-silapentane-5-sulfonate (DSS) was used for chemical shift referencing and calibrated to a zero ppm value in each case. […] Then the pKa was calculated by using the chemical shifts of the protonated and unprotonated forms at the respective pH and fitting to the Henderson-Hasselbalch equation[25] (Fig. 6B).
1D ^1H-NMR experiments were performed using 256 scans for each sample. ^1H chemical shift values were extracted for the reporter protons using TopSpin 3.2 (Bruker BioSpin). The pKa was calculated using the chemical shifts of the protonated and unprotonated forms and their corresponding mole fraction values applying the Henderson-Hasselbalch equation as explained by Gift et al.[25]. The data were processed and plotted with the Origin software (OriginLab Corporation, USA).

[3] = Chemical stability in PBS; type: physicochemical; conditions: pH 7.4, 0–4 h
Experimental: as §1, §2, §3, §4, §5

[4] = Peff in cm sec-1 from PAMPA assays; ref Bennion, Be [13]; cited from earlier work
NHR2 = molecular target: T1, NHR2 (Homo sapiens, UniProt Q06455); assay: Isothermal titration calorimetry (ITC) of HEB fragment with NHR2; conditions: 25°C, one-site binding model
T1 construct: The N-terminal residues from Q485 to D495, T519, and the C-terminal residues from Y544 to K552; 6His (N, cleaved yes); SUMO (N, cleaved yes); made in house; host or cells: E. coli Rosetta (DE3)pLysS
T1 sequence (Q06455 337-404): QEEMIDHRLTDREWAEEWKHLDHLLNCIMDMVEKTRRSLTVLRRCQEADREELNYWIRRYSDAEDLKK
Experimental: The NHR2 domain was overexpressed and purified, and the resulting material yielded homogeneous, monodisperse species in solution. The sample was homogenous as analyzed by size exclusion chromatography (SEC) (Fig. 2A), SDS-PAGE (Fig. S1), and dynamic light scattering (DLS) (Fig. S3). The oligomeric state of purified NHR2 was assessed by analytical ultracentrifugation (AUC) (Fig. S4). The sedimentation profiles of NHR2 show a single major species with a sedimentation coefficient (S value) of 3.07, which corresponds to the molecular weight of 37.3 kDa. This value is in agreement with the calculated molecular weight of an NHR2 tetramer of 34.2 kDa. […] The weight percent contribution of the tetramer in 35 µM of NHR2 is 94% as obtained by integration of the continuous sedimentation coefficient distribution function. To check the function of the purified NHR2, we performed isothermal titration calorimetry (ITC) with the HEB fragment of E proteins (HEB (176–200)).
Figure S5. NHR2 interaction with E proteins (HEB (176-200)) by isothermal titration calorimetry (ITC). Titration of
600 μM HEB (176-200) peptide into a 53 μM NHR2 solution and resulting heat change are shown in the upper panel. The
ITC measurements were performed at 25°C using a MicroCal ITC200 (Malvern Instruments Ltd., United Kingdom)
calorimeter. Buffer conditions were 50 mM sodium phosphate, 50 mM sodium chloride pH 8. […]

HEB 176-200 = molecular target: T2, HEB 176-200 (Homo sapiens, UniProt Q99081); assay: ITC
T2 chain: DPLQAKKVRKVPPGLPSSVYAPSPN

MST = molecular target: the molecule itself; assay: MST

- solubility kinetic at […] ([1]; 99% PBS, 1% DMSO, pH 7.4, aqueous buffer): 177 ± 8 µM
- solubility kinetic at […] ([1]; PBS with 1% DMSO, aqueous buffer, PBS, pH 7.4, read-out: Kinetic solubility): 60 µg/mL
- hepatocyte CLint at 5 µM (Hepatocyte stability; male, CD-1, primary hepatocytes (pooled, suspension), read-out: Hepatocyte stability, intrinsic clearance rate (CLint)): 2.5 µL/min/1e6 cells
- half-life at 5 µM (Hepatocyte stability; male, CD-1, primary hepatocytes (pooled, suspension), read-out: half-life time): > 2 h
- compound remaining (Hepatocyte stability; after 120 min): 73.8%
- Plasma stability (Plasma stability): No degradation
- pKa ([2]; sodium phosphate buffer with NaCl and DMSO-d6, reporter proton H2, read-out: pKa of the carboxylic group): 3.99 ± 0.01
- pKa ([2]; sodium phosphate buffer with NaCl and DMSO-d6, reporter proton H3, read-out: pKa of the carboxylic group): 3.93 ± 0.01
- pKa ([2]; sodium phosphate buffer with NaCl and DMSO-d6, summary value, read-out: pKa): ~3.9
- Chemical stability in PBS [3]: No degradation
Molecule: O=C(CC(C(=O)O)c1ccc2c(c1)OCO2)c1ccc2c(c1)OCO2 (stereo not drawn) [7.44]

Molecule: CN(C)CCCN1c2ccccc2Sc2ccc(Cl)cc21 [chlorpromazine]
- log Peff/PAMPA P0-1 [4]: -5.26

- binding enthalpy ΔH (NHR2): -15 ± 6 kcal/mol
- Kd (NHR2; read-out: dissociation constant KD): 30 ± 4 µM
Molecule: HEB (176–200): HEB fragment of E proteins, known to interact with the NHR2 domain (DPLQAKKVRKVPPGLPSSVYAPSPN; UniProt Q99081 176-200, looked up, fragment)

Molecule: CC(=O)[C@H]1CC[C@H]2[C@@H]3CCC4=CC(=O)CC[C@]4(C)[C@H]3CC[C@]12C [progesterone]
- log Peff/PAMPA P0-1 [4]: -4.94

Molecule: O/N=C/c1cc[n+](C[n+]2ccc(/C=N/O)cc2)cc1 [methoxime (MMB4), methoxime]
- log Peff/PAMPA P0-1 [4]: -9.25

Molecule: CN(C)CCCN1c2ccccc2Sc2ccccc21 [promazine]
- log Peff/PAMPA P0-1 [4]: -4.88

Molecule: C[n+]1ccccc1/C=N/O [pralidoxime (P2-PAM), pralidoxime]
- log Peff/PAMPA P0-1 [4]: -7.52

Molecule: NC(=O)c1cc[n+](COC[n+]2ccccc2/C=N/O)cc1 [asoxime (HI-6), asoxime]
- log Peff/PAMPA P0-1 [4]: -11.16

Molecule: Cn1c(=O)c2[nH]cnc2n(C)c1=O [theophylline]
- log Peff/PAMPA P0-1 [4]: -5.91

- Kd (HEB 176-200): 30 µM
B1: NHR2 domain of RUNX1/ETO 485-552 (protein)
chain: KMERTVAEAKRQAAEDALAVINQQEDSSESCWNCGRKASETCSGCNTARYCGSFCQHKDWEKHHHICG

B2: NHR2 domain of RUNX1/ETO (dimer) 485-552 (protein)
chain: B1 chain
- Kd (MST): 1.6 µM
